Laboratory results reported in patent publication US10080739B2, “Aryl imidazoles and their use as anti-cancer agents” (Aptose Biosciences Inc., priority 2003, dated 2018).
“Also recorded” adds a separate entry of the source.

Columns and labels:
Aurora-A = target: T1, Aurora-A (Homo sapiens, UniProt O14965); test: kinase profiler, Aurora-A; format: biochemical; conditions: 10 μM compound, 100 μM ATP, mean of % control
T1 construct: purchased Upstate Biotechnologies (kinase profiler service)
Method: (§1) Compound 45 was tested for its ability to function as a kinase inhibitor using the kinase profiler service from Upstate Biotechnologies. The general protocol employed is as follows: recombinant kinases were incubated with specific substrates, 10 mM MgAcetate, and [γ-^33P-ATP]. The reaction was initiated by the addition of MgATP mix. After incubation at room temperature for 40 minutes, the reaction was stopped by the addition of 5 μl of a 3% phosphoric acid solution. 10 μl of the reaction was then spotted on to a P30 filtermat and washed 3 times for 5 min. in 75 mM phosphoric acid and once in methanol prior to drying and scintillation counting. Each reaction was performed in duplicate with 100 μM ATP −/+10 μM compound 45. Results are presented in Table IV and are expressed as the mean of % control (no compound). PI 3-kinase-γ (PI3K-γ) activity was determined with the PIProfiler™ assay, which measures the binding of the GRP1 pleckstrin homology (PH) domain to PIP3, the product of PI3K acting on its physiological substrate PIP2.

MKK4 = target: T2, MKK4 (Mus musculus, UniProt P47809); test: kinase profiler, MKK4; format: biochemical, human; conditions: 10 μM compound, 100 μM ATP, mean of % control
T2 construct: purchased Upstate Biotechnologies (kinase profiler service)
Method: as §1

AMPK = test: kinase profiler, AMPK; format: biochemical, human; conditions: 10 μM compound, 100 μM ATP, mean of % control
Method: as §1

PDK1 = target: T3, PDK1 (Homo sapiens, UniProt O15530); test: kinase profiler, PDK1; format: biochemical; conditions: 10 μM compound, 100 μM ATP, mean of % control
T3 construct: purchased Upstate Biotechnologies (kinase profiler service)
Method: as §1

SAPK3 = target: T4, SAPK3 (Homo sapiens, UniProt P53778); test: kinase profiler, SAPK3; format: biochemical; conditions: 10 μM compound, 100 μM ATP, mean of % control
T4 construct: purchased Upstate Biotechnologies (kinase profiler service)
Method: as §1

Yes = target: T5, Yes (Homo sapiens, UniProt P07947); test: kinase profiler, Yes; format: biochemical; conditions: 10 μM compound, 100 μM ATP, mean of % control
T5 construct: purchased Upstate Biotechnologies (kinase profiler service)
Method: as §1

SAPK2b = target: T6, SAPK2b (Homo sapiens, UniProt Q15759); test: kinase profiler, SAPK2b; format: biochemical; conditions: 10 μM compound, 100 μM ATP, mean of % control
T6 construct: purchased Upstate Biotechnologies (kinase profiler service)
Method: as §1

ASK1 = target: T7, ASK1 (Homo sapiens, UniProt Q99683); test: kinase profiler, ASK1; format: biochemical; conditions: 10 μM compound, 100 μM ATP, mean of % control
T7 construct: purchased Upstate Biotechnologies (kinase profiler service)
Method: as §1

PI3K-δ = target: T8, PI3K-δ (Homo sapiens, UniProt O00329); test: kinase profiler, PI3K-δ; format: biochemical; conditions: 10 μM compound, mean of % control
T8 construct: purchased Upstate Biotechnologies (kinase profiler service)
Method: as §1

PKCμ = target: T9, PKCμ (Homo sapiens, UniProt Q15139); test: kinase profiler, PKCμ; format: biochemical; conditions: 10 μM compound, 100 μM ATP, mean of % control
T9 construct: purchased Upstate Biotechnologies (kinase profiler service)
Method: as §1

p70S6K = test: kinase profiler, p70S6K; format: biochemical, human; conditions: 10 μM compound, 100 μM ATP, mean of % control
Method: as §1

MSK1 = target: T10, MSK1 (Homo sapiens, UniProt O75582); test: kinase profiler, MSK1; format: biochemical; conditions: 10 μM compound, 100 μM ATP, mean of % control
T10 construct: purchased Upstate Biotechnologies (kinase profiler service)
Method: as §1

Ros = target: T11, Ros (Homo sapiens, UniProt P08922); test: kinase profiler, Ros; format: biochemical; conditions: 10 μM compound, 100 μM ATP, mean of % control
T11 construct: purchased Upstate Biotechnologies (kinase profiler service)
Method: as §1

[1] = tested on: HT-29 colon adenocarcinoma cells; test: cell cycle analysis by flow cytometry; format: cell-based, human; conditions: HT-29 cells starved 3 days, 15 μM or 25 μM for 24 or 48 hours, 10% serum
Method: The effect of treatment with compound 45 on cell cycle progression in HT-29 colon adenocarcinoma cells was examined by flow cytometry (FIG. 22). Values were determined by gate analysis of flow cytometric plots and are presented in FIG. 22 as a percentage of the total cell population, after eliminating doubles. Apoptotic events inferred by the surface area preceding G1 phase. Cells were starved for 3 days, and treated with 15 μM or 25 μM compound 45 for 24 or 48 hours in the presence of 10% serum, followed by flow cytometric analysis.

CDK2/cyclinE = target: T12, CDK2/cyclinE (Homo sapiens, UniProt P24941); test: kinase profiler, CDK2/cyclinE; format: biochemical; conditions: 10 μM compound, 100 μM ATP, mean of % control
T12 construct: purchased Upstate Biotechnologies (kinase profiler service)
Method: as §1

EphA2 = target: T13, EphA2 (Homo sapiens, UniProt P29317); test: kinase profiler, EphA2; format: biochemical; conditions: 10 μM compound, 100 μM ATP, mean of % control
T13 construct: purchased Upstate Biotechnologies (kinase profiler service)
Method: as §1

PI3K-α = target: T14, PI3K-α (Homo sapiens, UniProt P42336); test: kinase profiler, PI3K-α; format: biochemical; conditions: 10 μM compound, mean of % control
T14 construct: purchased Upstate Biotechnologies (kinase profiler service)

IKKβ = target: T15, IKKβ (Homo sapiens, UniProt O14920); test: kinase profiler, IKKβ; format: biochemical; conditions: 10 μM compound, 100 μM ATP, mean of % control
T15 construct: purchased Upstate Biotechnologies (kinase profiler service)
Method: as §1

CaMKII = test: kinase profiler, CaMKII; format: biochemical, human; conditions: 10 μM compound, 100 μM ATP, mean of % control
Method: as §1

PKCζ = target: T16, PKCζ (Homo sapiens, UniProt Q05513); test: kinase profiler, PKCζ; format: biochemical; conditions: 10 μM compound, 100 μM ATP, mean of % control
T16 construct: purchased Upstate Biotechnologies (kinase profiler service)
Method: as §1

Lyn = target: T17, Lyn (Homo sapiens, UniProt P07948); test: kinase profiler, Lyn; format: biochemical; conditions: 10 μM compound, 100 μM ATP, mean of % control
T17 construct: purchased Upstate Biotechnologies (kinase profiler service)
Method: as §1

PKCα = target: T18, PKCα (Homo sapiens, UniProt P17252); test: kinase profiler, PKCα; format: biochemical; conditions: 10 μM compound, 100 μM ATP, mean of % control
T18 construct: purchased Upstate Biotechnologies (kinase profiler service)
Method: as §1

TAK1 = target: T19, TAK1 (Homo sapiens, UniProt O43318); test: kinase profiler, TAK1; format: biochemical; conditions: 10 μM compound, 100 μM ATP, mean of % control
T19 construct: purchased Upstate Biotechnologies (kinase profiler service)
Method: as §1

EphB4 = target: T20, EphB4 (Homo sapiens, UniProt P54760); test: kinase profiler, EphB4; format: biochemical; conditions: 10 μM compound, 100 μM ATP, mean of % control
T20 construct: purchased Upstate Biotechnologies (kinase profiler service)
Method: as §1

JNK1α1 = target: T21, JNK1α1 (Homo sapiens, UniProt P45983); test: kinase profiler, JNK1α1; format: biochemical; conditions: 10 μM compound, 100 μM ATP, mean of % control
T21 construct: purchased Upstate Biotechnologies (kinase profiler service)
Method: as §1

[2] = tested on: A498 renal carcinoma cells; test: morphological changes (vacuoles), A498; format: cell-based, human; conditions: treatment for 24 hours
Excerpt: These vacuoles are not formed in DMSO- or doxorubicin-treated cells. Moreover, the nuclear membrane is no longer evident in the phase-contrast images of cells treated with compound 45, even though the nucleus is still intact, as shown by DAPI staining.

Plk3 = target: T22, Plk3 (Homo sapiens, UniProt Q9H4B4); test: kinase profiler, Plk3; format: biochemical; conditions: 10 μM compound, 100 μM ATP, mean of % control
T22 construct: purchased Upstate Biotechnologies (kinase profiler service)
Method: as §1

T3 sequence (O15530 whole entry): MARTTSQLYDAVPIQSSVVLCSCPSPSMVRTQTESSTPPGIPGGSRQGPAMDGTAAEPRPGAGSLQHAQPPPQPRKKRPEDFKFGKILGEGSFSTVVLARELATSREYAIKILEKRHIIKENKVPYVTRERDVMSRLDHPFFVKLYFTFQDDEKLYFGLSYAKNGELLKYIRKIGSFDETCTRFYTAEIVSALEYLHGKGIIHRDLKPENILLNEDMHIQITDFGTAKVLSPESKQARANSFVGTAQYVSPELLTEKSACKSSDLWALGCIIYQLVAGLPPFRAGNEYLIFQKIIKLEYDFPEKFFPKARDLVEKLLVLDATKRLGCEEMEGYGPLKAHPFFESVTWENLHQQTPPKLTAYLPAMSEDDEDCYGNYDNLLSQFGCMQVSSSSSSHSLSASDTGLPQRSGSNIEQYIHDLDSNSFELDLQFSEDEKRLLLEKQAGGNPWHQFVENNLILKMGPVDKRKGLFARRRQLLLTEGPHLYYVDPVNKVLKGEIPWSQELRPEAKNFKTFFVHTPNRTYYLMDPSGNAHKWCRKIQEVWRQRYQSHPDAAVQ
T6 sequence (Q15759 whole entry): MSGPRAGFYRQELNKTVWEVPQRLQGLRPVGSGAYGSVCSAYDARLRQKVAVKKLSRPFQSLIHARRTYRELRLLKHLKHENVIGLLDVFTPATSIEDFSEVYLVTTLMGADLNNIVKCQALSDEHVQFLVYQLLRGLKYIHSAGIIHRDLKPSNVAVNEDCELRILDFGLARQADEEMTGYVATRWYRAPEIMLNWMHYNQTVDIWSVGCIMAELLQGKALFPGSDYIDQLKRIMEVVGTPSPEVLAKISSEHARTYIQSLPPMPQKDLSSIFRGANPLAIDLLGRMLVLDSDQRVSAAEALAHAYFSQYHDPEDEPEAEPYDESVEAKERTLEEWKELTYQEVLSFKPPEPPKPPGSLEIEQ
T10 sequence (O75582 whole entry): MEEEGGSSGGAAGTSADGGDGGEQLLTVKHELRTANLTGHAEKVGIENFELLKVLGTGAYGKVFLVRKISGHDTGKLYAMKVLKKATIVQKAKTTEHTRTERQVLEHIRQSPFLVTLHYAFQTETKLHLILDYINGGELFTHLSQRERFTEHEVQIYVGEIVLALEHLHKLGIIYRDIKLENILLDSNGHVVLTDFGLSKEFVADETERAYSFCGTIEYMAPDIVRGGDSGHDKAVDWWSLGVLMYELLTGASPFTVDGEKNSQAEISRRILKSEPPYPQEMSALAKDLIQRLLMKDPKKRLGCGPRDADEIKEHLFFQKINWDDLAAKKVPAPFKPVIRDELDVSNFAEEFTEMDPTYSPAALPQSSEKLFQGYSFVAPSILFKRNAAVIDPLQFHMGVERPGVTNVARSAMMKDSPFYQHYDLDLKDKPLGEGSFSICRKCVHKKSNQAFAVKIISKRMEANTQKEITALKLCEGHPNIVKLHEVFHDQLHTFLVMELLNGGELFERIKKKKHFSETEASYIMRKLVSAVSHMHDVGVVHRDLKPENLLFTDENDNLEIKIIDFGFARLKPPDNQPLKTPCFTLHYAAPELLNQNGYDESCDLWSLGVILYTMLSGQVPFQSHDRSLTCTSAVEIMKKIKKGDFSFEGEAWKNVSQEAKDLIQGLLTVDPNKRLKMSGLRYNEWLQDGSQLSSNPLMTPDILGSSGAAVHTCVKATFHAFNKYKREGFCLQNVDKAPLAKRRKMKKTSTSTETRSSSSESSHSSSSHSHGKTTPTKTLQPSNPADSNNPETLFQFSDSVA
T16 sequence (Q05513 whole entry): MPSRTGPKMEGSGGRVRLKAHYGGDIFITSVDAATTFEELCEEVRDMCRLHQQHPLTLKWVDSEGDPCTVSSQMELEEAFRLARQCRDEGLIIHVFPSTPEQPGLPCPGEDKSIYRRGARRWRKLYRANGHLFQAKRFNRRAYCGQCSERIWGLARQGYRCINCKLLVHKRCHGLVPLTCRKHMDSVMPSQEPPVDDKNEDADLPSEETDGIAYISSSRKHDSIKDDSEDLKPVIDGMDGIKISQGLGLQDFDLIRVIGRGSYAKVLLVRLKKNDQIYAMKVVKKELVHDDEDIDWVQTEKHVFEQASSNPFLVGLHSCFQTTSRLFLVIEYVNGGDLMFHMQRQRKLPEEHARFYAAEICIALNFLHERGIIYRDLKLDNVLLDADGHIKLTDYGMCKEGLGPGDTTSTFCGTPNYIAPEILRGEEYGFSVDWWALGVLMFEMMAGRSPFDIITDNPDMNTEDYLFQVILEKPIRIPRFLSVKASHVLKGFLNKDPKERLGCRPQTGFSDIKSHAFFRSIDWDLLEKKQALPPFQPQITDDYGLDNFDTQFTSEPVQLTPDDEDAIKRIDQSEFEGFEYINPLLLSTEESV
T5 sequence (P07947 whole entry): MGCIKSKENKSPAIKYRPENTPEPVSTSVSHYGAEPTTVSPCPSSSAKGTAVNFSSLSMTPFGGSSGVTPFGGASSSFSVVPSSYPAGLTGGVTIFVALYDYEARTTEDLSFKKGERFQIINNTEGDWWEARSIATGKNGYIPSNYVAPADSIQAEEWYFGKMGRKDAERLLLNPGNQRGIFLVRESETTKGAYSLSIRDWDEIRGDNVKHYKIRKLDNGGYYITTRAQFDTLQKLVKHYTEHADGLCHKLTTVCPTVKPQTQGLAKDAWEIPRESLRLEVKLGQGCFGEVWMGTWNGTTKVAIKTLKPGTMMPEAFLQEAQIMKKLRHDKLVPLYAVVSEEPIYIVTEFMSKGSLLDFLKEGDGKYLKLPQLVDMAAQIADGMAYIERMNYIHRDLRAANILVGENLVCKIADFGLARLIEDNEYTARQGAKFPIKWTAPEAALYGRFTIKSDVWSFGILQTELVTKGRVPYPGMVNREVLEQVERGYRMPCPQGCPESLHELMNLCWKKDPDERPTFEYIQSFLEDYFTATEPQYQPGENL
T15 sequence (O14920 whole entry): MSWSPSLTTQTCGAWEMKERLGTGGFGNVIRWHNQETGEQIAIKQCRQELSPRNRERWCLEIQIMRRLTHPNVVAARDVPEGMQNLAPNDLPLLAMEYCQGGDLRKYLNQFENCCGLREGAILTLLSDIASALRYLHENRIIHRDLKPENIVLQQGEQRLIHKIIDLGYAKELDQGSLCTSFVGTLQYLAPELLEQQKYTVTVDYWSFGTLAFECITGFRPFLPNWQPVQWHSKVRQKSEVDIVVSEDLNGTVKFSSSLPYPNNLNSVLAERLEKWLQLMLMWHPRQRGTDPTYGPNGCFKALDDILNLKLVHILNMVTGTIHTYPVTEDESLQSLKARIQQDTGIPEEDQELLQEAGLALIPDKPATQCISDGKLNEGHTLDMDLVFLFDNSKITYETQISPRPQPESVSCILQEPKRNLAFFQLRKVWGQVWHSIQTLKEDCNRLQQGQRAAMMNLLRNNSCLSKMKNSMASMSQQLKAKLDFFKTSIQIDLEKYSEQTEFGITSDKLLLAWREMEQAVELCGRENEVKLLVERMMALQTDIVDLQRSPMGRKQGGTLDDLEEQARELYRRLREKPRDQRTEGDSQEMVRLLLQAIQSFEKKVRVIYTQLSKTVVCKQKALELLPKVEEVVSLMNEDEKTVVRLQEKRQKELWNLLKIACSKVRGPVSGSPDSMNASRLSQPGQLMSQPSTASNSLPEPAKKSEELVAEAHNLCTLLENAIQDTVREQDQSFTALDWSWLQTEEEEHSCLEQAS
T1 sequence (O14965 whole entry): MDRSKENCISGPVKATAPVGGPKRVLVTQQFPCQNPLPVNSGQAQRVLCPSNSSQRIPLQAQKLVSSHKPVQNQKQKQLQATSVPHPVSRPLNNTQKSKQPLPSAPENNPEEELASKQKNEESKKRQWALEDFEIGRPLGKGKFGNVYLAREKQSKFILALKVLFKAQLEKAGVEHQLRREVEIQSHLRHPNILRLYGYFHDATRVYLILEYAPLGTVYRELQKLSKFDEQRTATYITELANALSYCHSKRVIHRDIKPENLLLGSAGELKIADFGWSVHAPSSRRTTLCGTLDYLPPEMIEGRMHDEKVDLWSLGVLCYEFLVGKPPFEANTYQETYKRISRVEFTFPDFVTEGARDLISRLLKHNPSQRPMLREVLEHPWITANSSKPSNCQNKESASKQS
T19 sequence (O43318 1-303 limits assumed): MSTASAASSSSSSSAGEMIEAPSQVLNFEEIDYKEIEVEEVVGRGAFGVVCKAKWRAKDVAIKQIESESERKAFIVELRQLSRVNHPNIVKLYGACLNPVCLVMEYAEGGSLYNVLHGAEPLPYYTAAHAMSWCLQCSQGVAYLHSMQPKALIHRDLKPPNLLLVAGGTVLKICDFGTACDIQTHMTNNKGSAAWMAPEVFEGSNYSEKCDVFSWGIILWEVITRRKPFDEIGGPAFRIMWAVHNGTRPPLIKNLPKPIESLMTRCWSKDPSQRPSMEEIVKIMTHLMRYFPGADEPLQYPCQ

Q: Which results are given for `Brc1ccc2[nH]cc(-c3nc4c5ccccc5c5ccccc5c4[nH]3)c2c1` [Compound 45]?
A: activity at 10 µM (Aurora-A): 54%; activity at 10 µM (MKK4): 96%; % activity (AMPK): 100%; activity at 10 µM (PDK1): 106%; activity at 10 µM (SAPK3): 54%; activity at 10 µM (Yes): 91%; activity at 10 µM (SAPK2b): 80%; activity at 10 µM (ASK1): 99%; activity at 10 µM (PI3K-δ): 9%; activity at 10 µM (PKCμ): 90%; % activity (p70S6K): 64%; activity at 10 µM (MSK1): 76%; activity at 10 µM (Ros): 107%; effect on cell cycle progression [1]: increase of cells in the G1 phase and a decrease in the S and G2/M phases; also recorded: partial arrest in the G0/G1 phase; activity at 10 µM (CDK2/cyclinE): 117%; activity at 10 µM (EphA2): 95%; activity at 10 µM (PI3K-α): 30%; activity at 10 µM (IKKβ): 111%; % activity (CaMKII): 32%; activity at 10 µM (PKCζ): 96%; activity at 10 µM (Lyn): 81%; activity at 10 µM (PKCα): 92%; activity at 10 µM (TAK1): 104%; activity at 10 µM (EphB4): 95%; activity at 10 µM (JNK1α1): 85%; formation of vacuoles [2]: formation of large vacuoles within the cytoplasm; activity at 10 µM (Plk3): 132%
